Two compounds from patent publication US10570184B2, “GLP-1/glucagon receptor co-agonists for medical use” (Novo Nordisk A/S, priority 2014, dated 2020) can be followed below.

For this assay, the target named is T1, human GLP-1 receptor (Homo sapiens, UniProt P43220).
T1 construct: expressed in transfected cells; host or cells: membranes of BHK cells (parent BHKTS13), clone FCW467-12A
Nature of the assay: Assay (II)(a) GLP-1 receptor binding, 125I-GLP-1 displacement SPA on BHK membranes. The conditions noted are these: without presence of serum albumin; read-out: GLP-1R IC50 (nM) [Assay (II)(a)]. The essentials: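 Membranes from BHK cells (clone FCW467-12A) stably expressing human GLP-1R were incubated with serially diluted compounds (8×10EE-13 to 8×10EE-7 M before addition) and [125I]-GLP-1-(7-36)NH2 with WGA SPA beads, 2 h at 30° C, pH 7.4. IC50 taken from displacement by non-linear regression. Run at ≤0.001% or 2.0% final serum albumin.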

Starred links: 1 amine or outer side, 2 acyl side, 3 side chain; linkers in the order of their positions; H or OH if unused. Non-standard residues stand in square brackets, D forms with d. Residues, ends and D or L forms follow the SMILES beside them. Groups on a side chain read outwards from the residue. *: point of attachment. C18 diacid = O=C(O)CCCCCCCCCCCCCCCCC(=O)*; γGlu = O=C(O)[C@H](CCC(=O)[*:2])N[*:1]; Ac4c = NC1(C(=O)O)CCC1; AEEA = NCCOCCOCC(=O)O; Aib = CC(C)(N)C(=O)O

T1 sequence (P43220 24-463): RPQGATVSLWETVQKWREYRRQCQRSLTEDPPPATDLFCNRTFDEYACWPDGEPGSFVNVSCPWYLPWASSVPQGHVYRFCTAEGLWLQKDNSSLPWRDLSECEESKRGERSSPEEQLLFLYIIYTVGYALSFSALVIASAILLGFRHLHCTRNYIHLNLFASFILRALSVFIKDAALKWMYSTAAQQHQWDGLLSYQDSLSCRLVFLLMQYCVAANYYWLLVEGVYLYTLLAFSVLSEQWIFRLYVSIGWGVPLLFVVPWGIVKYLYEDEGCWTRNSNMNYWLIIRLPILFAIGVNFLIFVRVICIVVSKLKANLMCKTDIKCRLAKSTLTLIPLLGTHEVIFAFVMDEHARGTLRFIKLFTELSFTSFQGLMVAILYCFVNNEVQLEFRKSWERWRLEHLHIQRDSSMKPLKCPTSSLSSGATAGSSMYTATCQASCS

Usually IC50 stands for the concentration needed to halve the response being measured. Consider `CC[C@H](C)[C@H](NC(=O)[C@H](CC(C)C)NC(=O)[C@H](Cc1c[nH]c2ccccc12)NC(=O)[C@H](CCC(N)=O)NC(=O)[C@@H](NC(=O)[C@H](Cc1ccccc1)NC(=O)[C@H](CCC(=O)O)NC(=O)[C@H](CCCNC(=N)N)NC(=O)[C@H](C)NC(=O)[C@H](CCCNC(=N)N)NC(=O)[C@H](CCCNC(=N)N)NC(=O)[C@H](CO)NC(=O)[C@H](CCC(=O)O)NC(=O)[C@H](CC(C)C)NC(=O)[C@H](Cc1ccc(O)cc1)NC(=O)[C@H](CCCNC(=N)N)NC(=O)[C@H](CO)NC(=O)[C@H](CC(C)C)NC(=O)[C@H](CC(=O)O)NC(=O)[C@H](CO)NC(=O)[C@@H](NC(=O)[C@H](Cc1ccccc1)NC(=O)[C@@H](NC(=O)CNC(=O)[C@H](CCC(N)=O)NC(=O)C1(NC(=O)[C@@H](N)Cc2c[nH]cn2)CCC1)[C@@H](C)O)[C@@H](C)O)C(C)C)C(=O)N[C@@H](CCCCNC(=O)CC[C@H](NC(=O)CC[C@H](NC(=O)COCCOCCNC(=O)COCCOCCNC(=O)CC[C@H](NC(=O)CC[C@H](NC(=O)CCCCCCCCCCCCCCCCC(=O)O)C(=O)O)C(=O)O)C(=O)O)C(=O)O)C(=O)N[C@H](C(N)=O)[C@@H](C)O` [Chem. 17, N^ε28-[(4S)-4-carboxy-4-[[(4S)-4-carboxy-4-[[2-[2 [2-[[2-[2-[2-[[(4S)-4-carboxy-4-[[(4S)-4-carboxy-4-(17-carboxyheptadecanoylamino)butanoyl]amino]butanoyl]amino]ethoxy]ethoxy]acetyl]amino]ethoxy]ethoxy]acetyl]amino]butanoyl]amino]butanoyl]-[Acb2,Leu10,Arg12,Glu15,Arg20,Glu21,Ile27,Lys28]-Glucagon amide] (H-H[Ac4c]QGTFTSDLSRYLESRRAREFVQWLIK([γGlu-γGlu-AEEA-AEEA-γGlu-γGlu-C18 diacid])T-NH2), for which the IC50 is 0.1 nM.

For the compound `CC[C@H](C)[C@H](NC(=O)[C@H](CC(C)C)NC(=O)[C@H](Cc1c[nH]c2ccccc12)NC(=O)[C@H](CCC(N)=O)NC(=O)[C@@H](NC(=O)[C@H](Cc1ccccc1)NC(=O)[C@H](CC(=O)O)NC(=O)[C@H](CCC(N)=O)NC(=O)[C@H](C)NC(=O)[C@H](CCCNC(=N)N)NC(=O)[C@H](CCCNC(=N)N)NC(=O)[C@H](C)NC(=O)[C@H](CC(=O)O)NC(=O)[C@H](CC(C)C)NC(=O)[C@H](Cc1ccc(O)cc1)NC(=O)[C@H](CCCCN)NC(=O)[C@H](CO)NC(=O)[C@H](CC(C)C)NC(=O)[C@H](CC(=O)O)NC(=O)[C@H](CO)NC(=O)[C@@H](NC(=O)[C@H](Cc1ccccc1)NC(=O)[C@@H](NC(=O)CNC(=O)[C@H](CCC(N)=O)NC(=O)C(C)(C)NC(=O)[C@@H](N)Cc1c[nH]cn1)[C@@H](C)O)[C@@H](C)O)C(C)C)C(=O)N[C@@H](CCCCNC(=O)COCCOCCNC(=O)COCCOCCNC(=O)CC[C@H](NC(=O)CC[C@H](NC(=O)CC[C@H](NC(=O)CCCCCCCCCCCCCCCCC(=O)O)C(=O)O)C(=O)O)C(=O)O)C(=O)N[C@H](C(N)=O)[C@@H](C)O` [Chem. 7, N^ε28-[2-[2-[2-[[2-[2-[2-[[(4S)-4-carboxy-4-[[(4S)-4-carboxy-4-[[(4S)-4-carboxy-4-(17-carboxyheptadecanoylamino)butanoyl]amino]butanoyl]amino]butanoyl]amino]ethoxy]ethoxy]acetyl]amino]ethoxy]ethoxy]acetyl]-[Aib2,Leu10,Ala16,Ile27,Lys28]-Glucagon amide] (H-H[Aib]QGTFTSDLSKYLDARRAQDFVQWLIK([AEEA-AEEA-γGlu-γGlu-γGlu-C18 diacid])T-NH2; N-terminus assumed), the IC50 came out at 0.3 nM.
